Each structure is given as a SMILES string.

Test [1] addresses T1, recombinant human ALK5 (TGF-βR1) protein (Homo sapiens, UniProt P36897).
T1 construct: purchased Life Technologies PR9075A
T1 sequence (P36897 34-503): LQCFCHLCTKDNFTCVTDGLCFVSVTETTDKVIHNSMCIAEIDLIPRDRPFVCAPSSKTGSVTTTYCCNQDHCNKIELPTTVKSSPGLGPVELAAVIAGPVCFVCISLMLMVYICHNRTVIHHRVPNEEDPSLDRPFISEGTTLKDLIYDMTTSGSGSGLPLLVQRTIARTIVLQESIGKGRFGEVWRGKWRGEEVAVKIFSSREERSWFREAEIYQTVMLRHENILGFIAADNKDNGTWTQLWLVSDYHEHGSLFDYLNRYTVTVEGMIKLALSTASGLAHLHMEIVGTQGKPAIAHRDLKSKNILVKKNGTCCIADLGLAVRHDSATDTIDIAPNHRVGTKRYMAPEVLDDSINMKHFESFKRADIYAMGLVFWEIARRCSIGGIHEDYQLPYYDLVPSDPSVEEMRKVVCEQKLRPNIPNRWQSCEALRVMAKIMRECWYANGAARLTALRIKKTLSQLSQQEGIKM
The experiment in a line: Biochemical ALK5 (TGF-βR1) assay to measure pKi (LANCE Ultra ULight kinase assay). Particulars: apparent pKi, converted from pIC50 using the Cheng-Prusoff equation. The protocol:
The assays were performed in a 384-well plate (24 columns×16 wells/rows). An Echo®550 Liquid Handler (Labcyte) was used to prepare various intermediate concentrations of the compound of Formula I in 100% DMSO. From the intermediate concentrations, a range of concentrations (from 10 μM to […] corresponding to volumes up to 105 nL) were prepared and ejected into a final assay plate to be used to create individual dose response curves. To a separate column within the assay plate, 105 nL of DMSO in each well was used to establish a maximum assay signal. […]
Next, 2 μL of 125 μM ATP (5× final, 125 μM ATP prepared in assay buffer with 2 mM DTT) was added to the incubated mixtures, covered with a MicroClime® Environmental Lid (Product No. LLS-0310, Labcyte) and immediately transferred to 37° C. […] The plate was then read on a Perkin Elmer EnVision Plate Reader using europium specific reader settings with excitation and emission wavelengths set to 320 or 340 nm and 665 nm, respectively.
For dose-response analyses, percent inhibition versus compound concentrations were plotted, and pIC50 values were determined from a 4-parameter robust fit model with GraphPad Prism V5 Software (GraphPad Software, Inc., La Jolla, Calif.). […] Results were expressed as pIC50 (negative logarithm of IC50) and subsequently converted to pKi (negative logarithm of dissociate constant, Ki) using the Cheng-Prusoff equation. […]
A general note: In TR-FRET formats the signal depends on donor and acceptor labels being close together.

Test [2] concerns DSS-induced intestinal fibrosis. Kind of test: Prophylactic study in murine DSS-induced intestinal fibrosis model. Particulars: oral gavage starting on day one of DSS administration; sacrifice 9 weeks. The test is classed as in vivo, C57BL/6J mice. The method, then:
The compound of Formula I is expected to slow, halt or reverse the progression of intestinal fibrosis in a murine colitis model. Six to 8-week old male C57BL/6J mice are tagged and weighed. The drinking water of the animals is treated with 2.5% dextran sulfate sodium (DSS) for 7 days to induce acute colitis, followed by 2 days of normal drinking water. Three, 3-week cycles of 2.5% DSS treatment (1 week of 2.5% DSS in water; 2 weeks of normal water) are then completed to induce intestinal fibrosis. Starting on day one of DSS administration, mice are treated with either vehicle control or the compound of Formula I at an appropriate amount and frequency via oral gavage (e.g., once daily). The animals are sacrificed 9 weeks after the first DSS administration, then distal, mid and proximal sections of the colon harvested for histologic analysis, RNA extraction and cytokine measurement.

Test [3] has the same test system. The experiment in a line: Efficacy study in murine DSS-induced intestinal fibrosis model. In kind it is in vivo, C57BL/6J mice. Particulars: oral gavage following the second of the 3 cycles of DSS; sacrifice at 6, 9 or 12 weeks. The method, then: The compound of Formula I is expected to slow, halt or reverse the progression of intestinal fibrosis in a murine colitis model. Six to 8-week old male C57BL/6J mice are tagged and weighed. The drinking water of the animals is treated with 2.5% dextran sulfate sodium (DSS) for 7 days to induce acute colitis, followed by 2 days of normal drinking water. Three, 3-week cycles of 2.5% DSS treatment (1 week of 2.5% DSS in water; 2 weeks of normal water) are then completed to induce intestinal fibrosis. Following the second of the 3 cycles of DSS administration, mice are treated with either vehicle control or the compound of Formula I at an appropriate amount and frequency via oral gavage (e.g., once daily). Animals are sacrificed at either 6, 9 or 12 weeks after the first DSS cycle, then distal, mid and proximal sections of the colon harvested for histologic analysis, RNA extraction and cytokine measurement.

Consider `C[C@@H]1CN(CCNc2cnc3ccc(-c4nc[nH]c4-c4cc(Cl)ccc4F)nc3c2)C[C@H](C)N1` [compound of Formula I, 6-(5-(5-chloro-2-fluorophenyl)-1H-imidazol-4-yl)-N-(2-((3S,5R)-3,5-dimethylpiperazin-1-yl)ethyl)-1,5-naphthyridin-3-amine], for which the Ki in test [1] is 39.8 to 316 pM. In addition, the intestinal fibrosis entry in test [2] was “slow or prevent intestinal fibrosis”; in test [3] it was “slow, halt or reverse intestinal fibrosis”.
